The text below walks through data of ChEMBL document CHEMBL2440005, “Discovery and structure-activity relationships of 6-(benzoylamino)benzoxaboroles as orally active anti-inflammatory agents” (Bioorg Med Chem Lett, 2013).

Data set [1] relates to PBMC. In words: Antiinflammatory activity in human PBMC assessed as inhibition of LPS-induced IL-6 release incubated for 15 mins prior to LPS-challenge measured after 24 hrs by HTRF assay. Type of data set: functional, cell-based. (Time-resolved FRET reads energy transfer from a long-lived donor to a nearby acceptor.)
The test system of data set [2] is PBMC. In words: Antiinflammatory activity in human PBMC assessed as inhibition of LPS-induced IL-1beta release incubated for 15 mins prior to LPS-challenge measured after 24 hrs by HTRF assay. Type of data set: functional, cell-based.
Data set [3] has as its system PBMC. In words: Antiinflammatory activity in human PBMC assessed as inhibition of LPS-induced TNFalpha release incubated for 15 mins prior to LPS-challenge measured after 24 hrs by HTRF assay. Type of data set: functional, cell-based.
In data set [4] the test system is Mus musculus. The experiment in a line: Toxicity in mouse assessed as change in body weight at 3 mg/kg, po qd after 20 days relative to untreated control. Type of data set: organism-based. More on the design: dose 3 mg/kg, route oral. The settings on record: in vivo, 480 h.
In data set [5] the test system is Mus musculus. In words: Antiinflammatory activity in collagen-induced arthritis mouse model at 3 mg/kg, po qd after 20 days. Type of data set: functional, organism-based. Also on record: dose 3 mg/kg.

Active and inactive are the calls of the source. No cut-off for these calls is given here. A value given as a limit tells only on which side of the number the result lay.

As a reminder, the IC50 is the concentration that inhibits the measured activity by half. As to `O=C(Nc1ccc2c(c1)B(O)OC2)c1c(F)cccc1Cl`, the half-inhibitory concentration (IC50) turned out to be 4.9 µM in the data set with PBMC [1], 3.1 µM with PBMC [2] and 15 µM in the data set on PBMC [3].

`O=C(Nc1ccc2c(c1)B(O)OC2)c1ccccc1F`: the concentration for half-maximal inhibition (IC50) in the data set on PBMC [1] is > 10 µM; in the data set with PBMC [2] it was > 10 µM; in the data set with PBMC [3] it was > 100 µM.

With `O=C(Nc1ccc2c(c1)B(O)OC2)c1ccc(C(F)(F)F)cc1C(F)(F)F`, the concentration for half-maximal inhibition (IC50) is 8.3 µM in the data set on PBMC [1], 5.3 µM in the data set on PBMC [2] and 10 µM with PBMC [3].

In the case of `O=C(Nc1ccc2c(c1)B(O)OC2)c1c(F)cccc1C(F)(F)F`, the 50% inhibitory concentration (IC50) with PBMC [1] worked out at 0.37 µM; in the data set on PBMC [2], 0.18 µM; with PBMC [3] it was 1.2 µM.

Turning to `O=C(Nc1ccc2c(c1)B(O)OC2)c1ccccc1-c1ccccc1`, the concentration for half-maximal inhibition (IC50) in the data set on PBMC [1], in the data set with PBMC [2] and in the data set with PBMC [3] was > 100 µM each time.

As for `O=C(Nc1ccc2c(c1)B(O)OC2)Nc1ccccc1C(F)(F)F`, the concentration for half-maximal inhibition (IC50) in the data set with PBMC [1], in the data set on PBMC [2] and in the data set on PBMC [3] was > 10 µM each time.

`O=C(Nc1ccc2c(c1)B(O)OC2)c1ccc(F)cc1C(F)(F)F`: the 50% inhibitory concentration (IC50) amounted to 5.6 µM in the data set with PBMC [1], 3.2 µM in the data set on PBMC [2] and 13 µM in the data set on PBMC [3].

As for `Cc1ccccc1C(=O)Nc1ccc2c(c1)B(O)OC2`, the half-inhibitory concentration (IC50) in the data set with PBMC [1], with PBMC [2] and with PBMC [3] was > 100 µM throughout.

`O=C(Nc1ccc2c(c1)B(O)OC2)c1cccc(C(F)(F)F)c1`: the concentration for half-maximal inhibition (IC50) in the data set on PBMC [1], with PBMC [2] and with PBMC [3] was > 10 µM each time.

With `O=C(Nc1ccc2c(c1)B(O)OC2)c1ccccc1OC(F)(F)F`, the IC50 with PBMC [1], with PBMC [2] and with PBMC [3] was > 100 µM in each case.

With `O=S(=O)(Nc1ccc2c(c1)B(O)OC2)c1ccccc1C(F)(F)F`, the IC50 in the data set with PBMC [1], in the data set with PBMC [2] and with PBMC [3] was > 10 µM throughout.

In the case of `O=C(Nc1ccc2c(c1)B(O)OC2)c1ccc(C(F)(F)F)cc1`, the IC50 with PBMC [1], in the data set on PBMC [2] and with PBMC [3] was > 100 µM throughout.

In the case of `O=C(Nc1ccc2c(c1)B(O)OC2)c1ccccc1`, the IC50 with PBMC [1], in the data set on PBMC [2] and with PBMC [3] was > 100 µM throughout.

With `O=C(Nc1ccc2c(c1)B(O)OC2)c1cc(C(F)(F)F)ccc1F`, the IC50 in the data set on PBMC [1], with PBMC [2] and in the data set with PBMC [3] was > 100 µM throughout.

Take `O=C(Nc1ccc2c(c1)B(O)OC2)c1cc(C(F)(F)F)ccc1C(F)(F)F`: the values for the 50% inhibitory concentration (IC50) in the data set with PBMC [1], in the data set on PBMC [2] and in the data set on PBMC [3] were 3 µM, 2 µM and 6.3 µM, respectively.

For the compound `OB1OCc2ccc(NCc3ccccc3C(F)(F)F)cc21`, the concentration for half-maximal inhibition (IC50) in the data set with PBMC [1], with PBMC [2] and in the data set on PBMC [3] was > 10 µM in each case.

For the compound `O=C(Nc1ccc2c(c1)B(O)OC2)c1ccccc1C(F)(F)F`, the IC50 was determined as 4.4 µM with PBMC [1], 2.1 µM with PBMC [2] and 7.2 µM in the data set with PBMC [3].

With `O=C(Nc1ccc2c(c1)B(O)OC2)c1ccccc1Cl`, the half-maximal inhibitory concentration (IC50) with PBMC [1], in the data set with PBMC [2] and in the data set on PBMC [3] was > 100 µM in each case.

Consider `C[C@]12C=CC(=O)C=C1CC[C@@H]1[C@@H]2[C@@H](O)C[C@@]2(C)[C@H]1CC[C@]2(O)C(=O)CO` [PREDNISOLONE], for which, in the data set with Mus musculus [4], the Activity result is given as “Non-toxic”. Also, the inhibition result in the data set with Mus musculus [5] was “Active”.

As to `COc1ccccc1C(=O)Nc1ccc2c(c1)B(O)OC2`, the half-maximal inhibitory concentration (IC50) is > 100 µM in the data set with PBMC [1], > 100 µM with PBMC [2] and 36 µM in the data set on PBMC [3].

As for `O=C(Nc1ccc2c(c1)B(O)OC2)c1cccc(C(F)(F)F)c1F`, the concentration for half-maximal inhibition (IC50) in the data set on PBMC [1] was > 100 µM; with PBMC [2] it was > 100 µM; with PBMC [3] it was 99 µM.

With `O=C(Nc1ccc2c(c1)B(O)OC2)c1cccc(Cl)c1F`, the half-inhibitory concentration (IC50) in the data set with PBMC [1], with PBMC [2] and in the data set on PBMC [3] was > 100 µM throughout.

As to `O=C(Nc1ccc2c(c1)B(O)OC2)c1ccc(C(F)(F)F)cc1F`, the IC50 in the data set with PBMC [1], in the data set with PBMC [2] and with PBMC [3] was > 100 µM throughout.

Take `O=C(Nc1ccc2c(c1)B(O)OC2)c1cc(F)ccc1C(F)(F)F`: the values for the IC50 in the data set on PBMC [1], in the data set on PBMC [2] and with PBMC [3] were 8.2 µM, 11 µM and 28 µM, respectively.
